Data as given in the CheMixHub viscosity set.
Several values for one entry are separate records, joined by “and”; a condition that tells them apart may be missing. Equal values may be shown once. ± gives the uncertainty stated by the source.

Experiment: xn = mol fraction of the nth substance listed

CC(C)(C)c1ccccc1 + Cc1ccccc1
303.15 K, 101.3 kPa
Settings | viscosity [mPa·s]
x2 = 0.0457 | 0.974 ± 0.0079
x2 = 0.0865 | 0.949 ± 0.0077
x2 = 0.2449 | 0.8605 ± 0.007
x2 = 0.3937 | 0.7829 ± 0.0064
x2 = 0.4453 | 0.7568 ± 0.0062
x2 = 0.5167 | 0.7206 ± 0.006
x2 = 0.6672 | 0.6507 ± 0.0055
x2 = 0.7678 | 0.6057 ± 0.0052
x2 = 0.8687 | 0.5626 ± 0.0049
x2 = 0.957 | 0.5317 ± 0.0047
x2 = 0.9788 | 0.5253 ± 0.0047

CCCCCC + Cc1ccccc1
Settings | viscosity
298.15 K, 101 kPa, x1 = 0.1 | 0.5021 ± 0.0065 mPa·s
298.15 K, 101 kPa, x1 = 0.121 | 0.504 ± 0.014 mPa·s
298.15 K, 101 kPa, x1 = 0.2 | 0.4602 ± 0.0059 mPa·s
298.15 K, 101 kPa, x1 = 0.211 | 0.471 ± 0.013 mPa·s
298.15 K, 101 kPa, x1 = 0.299 | 0.443 ± 0.012 mPa·s
298.15 K, 101 kPa, x1 = 0.3 | 0.4254 ± 0.0055 mPa·s
298.15 K, 101 kPa, x1 = 0.4 | 0.3964 ± 0.0052 mPa·s
298.15 K, 101 kPa, x1 = 0.5 | 0.372 ± 0.0049 mPa·s
298.15 K, 101 kPa, x1 = 0.6 | 0.3513 ± 0.0046 mPa·s and 0.37 ± 0.01 mPa·s
298.15 K, 101 kPa, x1 = 0.7 | 0.3336 ± 0.0044 mPa·s
298.15 K, 101 kPa, x1 = 0.712 | 0.349 ± 0.01 mPa·s
298.15 K, 101 kPa, x1 = 0.799 | 0.335 ± 0.009 mPa·s
298.15 K, 101 kPa, x1 = 0.8 | 0.3186 ± 0.0042 mPa·s
298.15 K, 101 kPa, x1 = 0.9 | 0.3059 ± 0.0041 mPa·s
298.15 K, 101 kPa, x2 = 0.1483 | 0.321 ± 0.0041 mPa·s
298.15 K, 101 kPa, x2 = 0.1826 | 0.333 ± 0.0042 mPa·s
298.15 K, 101 kPa, x2 = 0.2169 | 0.34 ± 0.0043 mPa·s
298.15 K, 101 kPa, x2 = 0.2524 | 0.348 ± 0.0044 mPa·s
298.15 K, 101 kPa, x2 = 0.2897 | 0.36 ± 0.0045 mPa·s
298.15 K, 101 kPa, x2 = 0.3286 | 0.366 ± 0.0046 mPa·s
298.15 K, 101 kPa, x2 = 0.3707 | 0.377 ± 0.0047 mPa·s
298.15 K, 101 kPa, x2 = 0.4105 | 0.3865 ± 0.0048 mPa·s
298.15 K, 101 kPa, x2 = 0.4556 | 0.3985 ± 0.0049 mPa·s
298.15 K, 101 kPa, x2 = 0.5039 | 0.4115 ± 0.0051 mPa·s
298.15 K, 101 kPa, x2 = 0.552 | 0.426 ± 0.0053 mPa·s
298.15 K, 101 kPa, x2 = 0.6002 | 0.44 ± 0.0054 mPa·s
298.15 K, 101 kPa, x2 = 0.6539 | 0.457 ± 0.0056 mPa·s
298.15 K, 101 kPa, x2 = 0.6976 | 0.471 ± 0.0058 mPa·s
298.15 K, 101 kPa, x2 = 0.7444 | 0.486 ± 0.0059 mPa·s
298.23 K, 100 kPa, x1 = 0.5 | 0.3708 ± 0.03 mPa·s
298.28 K, 100 kPa, x1 = 0.25 | 0.4404 ± 0.035 mPa·s
298.3 K, 100 kPa, x1 = 0.75 | 0.3227 ± 0.026 mPa·s
303.15 K, 101.33 kPa, x1 = 0.0826 | 0.4983 ± 0.0051 mPa·s
303.15 K, 101.33 kPa, x1 = 0.1685 | 0.4637 ± 0.0049 mPa·s
303.15 K, 101.33 kPa, x1 = 0.2578 | 0.4362 ± 0.0046 mPa·s
303.15 K, 101.33 kPa, x1 = 0.3509 | 0.4117 ± 0.0044 mPa·s
303.15 K, 101.33 kPa, x1 = 0.4477 | 0.3884 ± 0.0042 mPa·s
303.15 K, 101.33 kPa, x1 = 0.5487 | 0.3671 ± 0.004 mPa·s
303.15 K, 101.33 kPa, x1 = 0.6541 | 0.3492 ± 0.0039 mPa·s
303.15 K, 101.33 kPa, x1 = 0.7643 | 0.3299 ± 0.0037 mPa·s
303.15 K, 101.33 kPa, x1 = 0.8795 | 0.3136 ± 0.0036 mPa·s
308.15 K, 101 kPa, x1 = 0.121 | 0.448 ± 0.012 mPa·s
308.15 K, 101 kPa, x1 = 0.211 | 0.42 ± 0.012 mPa·s
308.15 K, 101 kPa, x1 = 0.299 | 0.395 ± 0.011 mPa·s
308.15 K, 101 kPa, x1 = 0.448 | 0.361 ± 0.01 mPa·s
308.15 K, 101 kPa, x1 = 0.6 | 0.332 ± 0.009 mPa·s
308.15 K, 101 kPa, x1 = 0.712 | 0.314 ± 0.009 mPa·s
308.15 K, 101 kPa, x1 = 0.799 | 0.302 ± 0.008 mPa·s
313.15 K, 101.33 kPa, x1 = 0.0826 | 0.4542 ± 0.0048 mPa·s
313.15 K, 101.33 kPa, x1 = 0.1685 | 0.4265 ± 0.0045 mPa·s
313.15 K, 101.33 kPa, x1 = 0.2578 | 0.4033 ± 0.0043 mPa·s
313.15 K, 101.33 kPa, x1 = 0.3509 | 0.3782 ± 0.0041 mPa·s
313.15 K, 101.33 kPa, x1 = 0.4477 | 0.3592 ± 0.004 mPa·s
313.15 K, 101.33 kPa, x1 = 0.5487 | 0.3375 ± 0.0038 mPa·s
313.15 K, 101.33 kPa, x1 = 0.6541 | 0.3202 ± 0.0036 mPa·s
313.15 K, 101.33 kPa, x1 = 0.7643 | 0.3043 ± 0.0035 mPa·s
313.15 K, 101.33 kPa, x1 = 0.8795 | 0.2896 ± 0.0034 mPa·s
323.15 K, 101 kPa, x1 = 0.121 | 0.382 ± 0.011 mPa·s
323.15 K, 101 kPa, x1 = 0.211 | 0.36 ± 0.01 mPa·s
323.15 K, 101 kPa, x1 = 0.299 | 0.341 ± 0.01 mPa·s
323.15 K, 101 kPa, x1 = 0.448 | 0.314 ± 0.009 mPa·s
323.15 K, 101 kPa, x1 = 0.6 | 0.292 ± 0.008 mPa·s
323.15 K, 101 kPa, x1 = 0.712 | 0.278 ± 0.008 mPa·s
323.15 K, 101 kPa, x1 = 0.799 | 0.255 ± 0.007 mPa·s
323.15 K, 101.33 kPa, x1 = 0.0826 | 0.4006 ± 0.0043 mPa·s
323.15 K, 101.33 kPa, x1 = 0.1685 | 0.3747 ± 0.0041 mPa·s
323.15 K, 101.33 kPa, x1 = 0.2578 | 0.3545 ± 0.0039 mPa·s
323.15 K, 101.33 kPa, x1 = 0.3509 | 0.3354 ± 0.0037 mPa·s
323.15 K, 101.33 kPa, x1 = 0.4477 | 0.3184 ± 0.0036 mPa·s
323.15 K, 101.33 kPa, x1 = 0.5487 | 0.3022 ± 0.0035 mPa·s
323.15 K, 101.33 kPa, x1 = 0.6541 | 0.2867 ± 0.0033 mPa·s
323.15 K, 101.33 kPa, x1 = 0.7643 | 0.2736 ± 0.0032 mPa·s
323.15 K, 101.33 kPa, x1 = 0.8795 | 0.262 ± 0.0031 mPa·s

Cc1ccccc1O + Cc1ccccc1
308.15 K, 101 kPa
Settings | viscosity [mPa·s]
x1 = 0.1491 | 0.6 ± 0.0052
x1 = 0.224 | 0.7051 ± 0.006
x1 = 0.307 | 0.8217 ± 0.0069
x1 = 0.397 | 0.9904 ± 0.0081
x1 = 0.5325 | 1.332 ± 0.011
x1 = 0.6095 | 1.604 ± 0.013
x1 = 0.6968 | 2.034 ± 0.016
x1 = 0.7755 | 2.544 ± 0.019
x1 = 0.87 | 3.369 ± 0.025

CCCCCOC(C)=O + Cc1ccccc1O
Settings | viscosity [mPa·s]
298.15 K, 101 kPa, x2 = 0.5 | 1.165 ± 0.011

CC1CCC(C)O1 (stereo unspecified) + ClC1CCCCC1
viscosity [mPa·s], 101.3 kPa
Settings | x1 = 0.0973 | x1 = 0.2014 | x1 = 0.3026 | x1 = 0.3986 | x1 = 0.4986 | x1 = 0.6031 | x1 = 0.7002 | x1 = 0.7977 | x1 = 0.8986
298.15 K | 1.36 ± 0.009 | 1.179 ± 0.008 | 1.033 ± 0.0073 | 0.9191 ± 0.0067 | 0.818 ± 0.0061 | 0.7279 ± 0.0056 | 0.6563 ± 0.0052 | 0.5937 ± 0.0049 | 0.5366 ± 0.0046
313.15 K | 1.073 ± 0.0073 | 0.9412 ± 0.0066 | 0.8337 ± 0.006 | 0.7486 ± 0.0056 | 0.6724 ± 0.0052 | 0.6054 ± 0.0048 | 0.551 ± 0.0045 | 0.499 ± 0.0043 | 0.452 ± 0.004

CCCCCOC(C)=O + ClC(Cl)(Cl)Cl
303.15 K, 101.3 kPa
Settings | viscosity [mPa·s]
x1 = 0.0945 | 0.8029 ± 0.0052
x1 = 0.1925 | 0.7788 ± 0.0051
x1 = 0.3042 | 0.7586 ± 0.005
x1 = 0.4017 | 0.7482 ± 0.0049
x1 = 0.5021 | 0.7413 ± 0.0049
x1 = 0.6003 | 0.7378 ± 0.0048
x1 = 0.7016 | 0.7385 ± 0.0048
x1 = 0.808 | 0.7427 ± 0.0049
x1 = 0.9075 | 0.746 ± 0.0049

CCCCCOC(C)=O + ClC(Cl)C(Cl)Cl
303.15 K, 101.3 kPa
Settings | viscosity [mPa·s]
x1 = 0.1051 | 1.473 ± 0.01
x1 = 0.2031 | 1.446 ± 0.01
x1 = 0.3044 | 1.401 ± 0.0099
x1 = 0.4008 | 1.34 ± 0.0095
x1 = 0.5038 | 1.256 ± 0.009
x1 = 0.598 | 1.165 ± 0.0084
x1 = 0.7002 | 1.061 ± 0.0079
x1 = 0.7935 | 0.9582 ± 0.0073
x1 = 0.8927 | 0.8565 ± 0.0068

CCOC(=O)CC + ClC(Cl)C(Cl)Cl
viscosity [mPa·s], 101.3 kPa
Settings | 308.15 K | 318.15 K
x1 = 0.0486 | 1.333 ± 0.082 | 1.203 ± 0.075
x1 = 0.0999 | 1.261 ± 0.078 | 1.128 ± 0.071
x1 = 0.2025 | 1.127 ± 0.071 | 0.996 ± 0.063
x1 = 0.2997 | 1.013 ± 0.064 | 0.888 ± 0.057
x1 = 0.3983 | 0.922 ± 0.059 | 0.794 ± 0.052
x1 = 0.5003 | 0.817 ± 0.054 | 0.71 ± 0.048
x1 = 0.5986 | 0.714 ± 0.048 | 0.64 ± 0.044
x1 = 0.7023 | 0.617 ± 0.042 | 0.576 ± 0.04
x1 = 0.801 | 0.583 ± 0.041 | 0.523 ± 0.037
x1 = 0.9018 | 0.521 ± 0.037 | 0.476 ± 0.035
x1 = 0.951 | 0.493 ± 0.036 | 0.455 ± 0.033

CCCCCOC(C)=O + ClC(Cl)Cl
303.15 K, 101.3 kPa
Settings | viscosity [mPa·s]
x1 = 0.0995 | 0.5918 ± 0.004
x1 = 0.2017 | 0.6667 ± 0.0044
x1 = 0.2998 | 0.725 ± 0.0048
x1 = 0.3984 | 0.7678 ± 0.005
x1 = 0.5049 | 0.7991 ± 0.0052
x1 = 0.5912 | 0.8048 ± 0.0052
x1 = 0.7005 | 0.8002 ± 0.0052
x1 = 0.8153 | 0.7844 ± 0.0051
x1 = 0.8911 | 0.7722 ± 0.005
